In patent publication US11987556B2, “Dual-functional compounds and methods of use” (BIOFRONT THERAPEUTICS (BEIJING) CO., LTD., priority 2020, dated 2024):

Tests used:
[1] = target: human recombinant PDE4A (Homo sapiens (Human), UniProt P27815); experiment: PDE fluorescence polarization assay (BPS Bioscience kit), PDE4A; format: biochemical; conditions: FAM-cAMP substrate, 1 hr at room temperature; read-out: IC50 for inhibiting PDE4A
Protocol: (§1) The inhibition of PDE4 (e.g., PDE4A, PDE4C) activity by the compounds (e.g., compound-1, compound-2, compound-3, compound-4, compound-5, and compound-6) are monitored using the PDE fluorescence polarization assay kits from BPS Bioscience (San Diego, USA) following the provided procedure. This assay is based on the selective binding of the fluorescent dye FAM-labelled AMP generated by the PDEs from the FAM-cAMP to its binding beads.
(§2) Briefly, compounds (2.5 ul of different concentrations diluted in the assay buffer) were mixed with 12.5 uL of the FAM-cAMP substrate (200 nM in the assay buffer) in a 384-well plate, 10 ul of the human recombinant PDE4A (BPS, Catalog #60340) or PDE4C (BPS, Catalog #60384) was added. The plate was incubated for 1 hr at room temperature. 50 ul of the binding agent for FAM-AMP was added. The mixture was incubated at room temperature for 20 min. The amount of binding agent bound FAM-AMP was measured by the fluorescence polarization method on the Envision spectrometer. The potency (IC50 value, Table1) of exemplified compounds was calculated from the dose-response curve using the 4-parameter non-linear regression fitting routine.

[2] = target: human recombinant PDE4C (Homo sapiens (Human), UniProt Q08493); experiment: PDE fluorescence polarization assay (BPS Bioscience kit), PDE4C; format: biochemical; conditions: FAM-cAMP substrate, 1 hr at room temperature; read-out: IC50 for inhibiting PDE4C
Protocol: as §1, §2

[3] = Blood level of compound-6 produced after oral dosing of compound-1 in mice; format: in vivo; conditions: 5 mg/kg
Protocol: The exemplified compound-1 (formulated at 0.5 mg/mL in 0.5% carboxymethyl cellulose (CMC)/0.25% Tween-80 in water as a suspension) was dosed orally to 4 mice at 5 mg/kg. […] Approximately 200 ng/mL of compound-6 was detected in the blood at 15 min. Compound-6 blood level peaked at approximately 250 ng/mL between 1 to 2 hrs, and mostly cleared to around 25 ng/mL at 6 hr. […] This kinetic profile of compound-6 blood level provides the opportunities to treat diseases that are responsive to compound-6 treatment, beyond dosing compound-6 directly, such as reducing the expected high Cmax-caused side effects from directly dosing compound-6.

human recombinant PDE4A, sequence (P27815 other isoform, or with tags, fused parts or gaps isoform P27815-4): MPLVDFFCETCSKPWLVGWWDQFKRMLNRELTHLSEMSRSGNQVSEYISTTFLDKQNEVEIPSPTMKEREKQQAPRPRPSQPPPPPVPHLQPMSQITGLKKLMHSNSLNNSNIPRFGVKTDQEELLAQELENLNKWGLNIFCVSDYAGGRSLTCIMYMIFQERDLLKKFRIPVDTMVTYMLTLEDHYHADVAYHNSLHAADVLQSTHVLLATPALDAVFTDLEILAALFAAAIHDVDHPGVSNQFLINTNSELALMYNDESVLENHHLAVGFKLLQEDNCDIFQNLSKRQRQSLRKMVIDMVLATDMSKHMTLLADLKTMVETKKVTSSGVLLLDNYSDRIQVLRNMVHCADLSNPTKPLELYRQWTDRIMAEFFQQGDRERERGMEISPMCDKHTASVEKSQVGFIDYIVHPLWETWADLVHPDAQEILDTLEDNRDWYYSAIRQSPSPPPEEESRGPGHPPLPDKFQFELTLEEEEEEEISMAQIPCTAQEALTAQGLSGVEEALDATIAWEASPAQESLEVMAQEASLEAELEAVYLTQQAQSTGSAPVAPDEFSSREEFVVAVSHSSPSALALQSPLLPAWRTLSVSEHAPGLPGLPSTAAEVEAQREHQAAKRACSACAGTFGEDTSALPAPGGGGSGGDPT
human recombinant PDE4C, sequence (Q08493 whole entry): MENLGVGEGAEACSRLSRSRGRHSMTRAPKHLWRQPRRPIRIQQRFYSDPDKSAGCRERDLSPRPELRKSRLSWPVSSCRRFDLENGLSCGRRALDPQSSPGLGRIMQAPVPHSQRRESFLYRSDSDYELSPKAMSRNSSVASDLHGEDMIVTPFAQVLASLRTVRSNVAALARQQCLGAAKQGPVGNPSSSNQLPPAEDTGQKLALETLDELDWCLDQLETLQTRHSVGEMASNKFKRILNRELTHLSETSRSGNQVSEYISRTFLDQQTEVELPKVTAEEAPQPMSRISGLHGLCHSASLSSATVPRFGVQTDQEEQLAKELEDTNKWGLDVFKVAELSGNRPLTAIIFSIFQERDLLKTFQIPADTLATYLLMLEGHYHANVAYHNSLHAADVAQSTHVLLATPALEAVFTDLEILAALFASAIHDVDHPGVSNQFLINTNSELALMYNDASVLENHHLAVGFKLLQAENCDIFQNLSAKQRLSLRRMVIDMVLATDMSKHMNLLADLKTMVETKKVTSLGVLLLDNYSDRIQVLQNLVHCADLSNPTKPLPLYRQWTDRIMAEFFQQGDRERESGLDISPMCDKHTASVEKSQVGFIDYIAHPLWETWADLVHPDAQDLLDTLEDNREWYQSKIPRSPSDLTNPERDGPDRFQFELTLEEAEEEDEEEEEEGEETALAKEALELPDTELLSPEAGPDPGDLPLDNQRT

IC50 [1]	IC50 [2]	bioactivation after oral dosing, forming metabolite compound-6 [3]	SMILES
0.038 µM	0.826 µM		CCOc1cc([C@@H](CS(C)(=O)=O)N2C(=O)c3cccc(NC(=O)CNC(=O)O[C@H]4CO[C@H]5[C@@H]4OC[C@H]5O[N+](=O)[O-])c3C2=O)ccc1OC [compound-5, (3S,3aR,6R,6aS)-6-(nitrooxy)hexahydrofuro[3,2-b]furan-3-yl (2-((2-((S)-1-(3-ethoxy-4-methoxyphenyl)-2-(methylsulfonyl)ethyl)-1,3-dioxoisoindolin-4-yl)amino)-2-oxoethyl)carbamate]
0.71 µM	0.109 µM		CCOc1cc([C@@H](CS(C)(=O)=O)N2C(=O)c3cccc(NC(=O)CO[C@H]4CO[C@H]5[C@@H]4OC[C@H]5O[N+](=O)[O-])c3C2=O)ccc1OC [compound-4, (3R,3aS,6S,6aR)-6-(2-((2-((S)-1-(3-ethoxy-4-methoxyphenyl)-2-(methylsulfonyl)ethyl)-1,3-dioxoisoindolin-4-yl)amino)-2-oxoethoxy)hexahydrofuro[3,2-b]furan-3-yl nitrate]
0.214 µM	0.734 µM		CCOc1cc([C@@H](CS(C)(=O)=O)N2C(=O)c3cccc(NC(=O)CO)c3C2=O)ccc1OC [compound-6, N-{2-[(1S)-1-(3-ethoxy-4-methoxyphenyl)-2-methanesulfonylethyl]-1,3-dioxoisoindol-4-yl}-2-hydroxyacetamide]

Further lines, the molecule ahead of its results:

SMILES	IC50 [1]	IC50 [2]	bioactivation after oral dosing, forming metabolite compound-6 [3]
CCOc1cc([C@@H](CS(C)(=O)=O)N2C(=O)c3cccc(NC(=O)COC(=O)C(C)(C)CO[N+](=O)[O-])c3C2=O)ccc1OC [compound-1, (S)-2-((2-(1-(3-ethoxy-4-methoxyphenyl)-2-(methylsulfonyl)ethyl)-1,3-dioxoisoindolin-4-yl)amino)-2-oxoethyl 2,2-dimethyl-3-(nitrooxy)propanoate]	0.178 µM	2.23 µM	bioactivated rapidly
CCOc1cc([C@@H](CS(C)(=O)=O)N2C(=O)c3cccc(NC(=O)CNC(=O)C(C)(C)CO[N+](=O)[O-])c3C2=O)ccc1OC [compound-3, (S)-3-((2-((2-(1-(3-ethoxy-4-methoxyphenyl)-2-(methylsulfonyl)ethyl)-1,3-dioxoisoindolin-4-yl)amino)-2-oxoethyl)amino)-2,2-dimethyl-3-oxopropyl nitrate]	0.215 µM	1.02 µM	
CCOc1cc([C@@H](CS(C)(=O)=O)N2C(=O)c3cccc(NC(=O)COC(=O)C(C)(CO[N+](=O)[O-])CO[N+](=O)[O-])c3C2=O)ccc1OC [compound-2, (S)-2-((2-(1-(3-ethoxy-4-methoxyphenyl)-2-(methylsulfonyl)ethyl)-1,3-dioxoisoindolin-4-yl)amino)-2-oxoethyl 2-methyl-3-(nitrooxy)-2-((nitrooxy)methyl)propanoate]	0.308 µM	2.26 µM	
